Laboratory results as given in PubChem BioAssay (NCI).
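How tested: cells in 96-well plates exposed to compound for 48 hours at five concentrations. GI50: concentration for 50% inhibition of growth. TGI: total growth inhibition.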

Legend:
Assay in all cases: NCI anticancer screen, dose series, 48 h
SN12C renal = system: SN12C renal
SK-OV-3 ovarian = system: SK-OV-3 ovarian
MDA-MB-231 breast = system: MDA-MB-231 breast
LOX IMVI melanoma = system: LOX IMVI melanoma
IGROV1 ovarian = system: IGROV1 ovarian
HL-60(TB) leukemia = system: HL-60(TB) leukemia
OVCAR-4 ovarian = system: OVCAR-4 ovarian
DU-145 prostate = system: DU-145 prostate
NCI-H23 lung = system: NCI-H23 lung
SK-MEL-2 melanoma = system: SK-MEL-2 melanoma
SW-620 colon = system: SW-620 colon
HS 578T breast = system: HS 578T breast
OVCAR-8 ovarian = system: OVCAR-8 ovarian
CAKI-1 renal = system: CAKI-1 renal
HOP-92 NSCLC = system: HOP-92 NSCLC
A549 NSCLC = system: A549 NSCLC
SR leukemia = system: SR leukemia
M14 melanoma = system: M14 melanoma
TK-10 renal = system: TK-10 renal
OVCAR-3 ovarian = system: OVCAR-3 ovarian
UACC-257 melanoma = system: UACC-257 melanoma
T-47D breast = system: T-47D breast
MCF7 breast = system: MCF7 breast
MDA-MB-435 = system: MDA-MB-435
RPMI-8226 leukemia = system: RPMI-8226 leukemia
HCC-2998 colon = system: HCC-2998 colon
SNB-19 CNS = system: SNB-19 CNS
RXF 393 renal = system: RXF 393 renal
UO-31 renal = system: UO-31 renal
HCT-15 colon = system: HCT-15 colon
SK-MEL-5 melanoma = system: SK-MEL-5 melanoma
A498 renal = system: A498 renal
NCI-H460 lung = system: NCI-H460 lung
COLO 205 colon = system: COLO 205 colon
SK-MEL-28 melanoma = system: SK-MEL-28 melanoma
786-0 renal = system: 786-0 renal
NCI/ADR-RES ovarian = system: NCI/ADR-RES ovarian
EKVX NSCLC = system: EKVX NSCLC
HCT-116 colon = system: HCT-116 colon
SF-539 CNS = system: SF-539 CNS
CCRF-CEM leukemia = system: CCRF-CEM leukemia
OVCAR-5 ovarian = system: OVCAR-5 ovarian
MOLT-4 leukemia = system: MOLT-4 leukemia
UACC-62 melanoma = system: UACC-62 melanoma
PC-3 prostate = system: PC-3 prostate
KM12 colon = system: KM12 colon
BT-549 breast = system: BT-549 breast
SF-295 CNS = system: SF-295 CNS
U251 CNS = system: U251 CNS
MALME-3M melanoma = system: MALME-3M melanoma
ACHN renal = system: ACHN renal
HT29 colon = system: HT29 colon
NCI-H226 lung = system: NCI-H226 lung
HOP-62 NSCLC = system: HOP-62 NSCLC
SF-268 CNS = system: SF-268 CNS
NCI-H522 lung = system: NCI-H522 lung

In the case of `C#CCOc1ccc2ncnc(Nc3ccc(NC(=O)CCl)cc3)c2c1`, the GI50 (SN12C renal) is reported as 6.4 µM, the TGI (SN12C renal) is reported as 36.9 µM and the GI50 (SK-OV-3 ovarian) is reported as 12.5 µM. For the same compound, the TGI (SK-OV-3 ovarian) was 38.6 µM, the GI50 (MDA-MB-231 breast) was 4.51 µM and the TGI (MDA-MB-231 breast) was 20 µM. For the same compound, the GI50 (LOX IMVI melanoma) was 1.5 µM, the TGI (LOX IMVI melanoma) was 3.43 µM and the GI50 (IGROV1 ovarian) was 3.15 µM. It also gave a TGI (IGROV1 ovarian) of 10.9 µM, a GI50 (HL-60(TB) leukemia) of 5.91 µM and a TGI (HL-60(TB) leukemia) of 25.2 µM. The GI50 (OVCAR-4 ovarian) was 11.9 µM, the TGI (OVCAR-4 ovarian) was 39.2 µM and the GI50 (DU-145 prostate) was 11.7 µM. For the same compound, the TGI (DU-145 prostate) was 24 µM, the GI50 (NCI-H23 lung) was 3.85 µM and the TGI (NCI-H23 lung) was 18.4 µM. The GI50 (SK-MEL-2 melanoma) was 12.6 µM, the TGI (SK-MEL-2 melanoma) was 57.3 µM and the GI50 (SW-620 colon) was 3.48 µM. It also gave a TGI (SW-620 colon) of 13.3 µM, a GI50 (HS 578T breast) of 5.61 µM and a TGI (HS 578T breast) of 61.7 µM. It also gave a GI50 (OVCAR-8 ovarian) of 5.15 µM, a TGI (OVCAR-8 ovarian) of 63.4 µM and a GI50 (CAKI-1 renal) of 11.3 µM. It also gave a TGI (CAKI-1 renal) of 23.6 µM, a GI50 (HOP-92 NSCLC) of 12.2 µM and a TGI (HOP-92 NSCLC) of 27.9 µM. It also gave a GI50 (A549 NSCLC) of 13.4 µM, a TGI (A549 NSCLC) of 39.7 µM and a GI50 (SR leukemia) of 2.69 µM. For the same compound, the TGI (SR leukemia) was 15 µM, the GI50 (M14 melanoma) was 9.4 µM and the TGI (M14 melanoma) was 27.7 µM. It also gave a GI50 (TK-10 renal) of 13.7 µM, a TGI (TK-10 renal) of 42.7 µM and a GI50 (OVCAR-3 ovarian) of 4.68 µM. The TGI (OVCAR-3 ovarian) was 17.2 µM, the GI50 (UACC-257 melanoma) was 15.5 µM and the TGI (UACC-257 melanoma) was 38.4 µM. The GI50 (T-47D breast) was 8.4 µM, the TGI (T-47D breast) was 31.9 µM and the GI50 (MCF7 breast) was 3.61 µM. For the same compound, the TGI (MCF7 breast) was 15.9 µM, the GI50 (MDA-MB-435) was 2.67 µM and the TGI (MDA-MB-435) was greater than 100 µM. For the same compound, the GI50 (RPMI-8226 leukemia) was 3.88 µM, the TGI (RPMI-8226 leukemia) was 18.1 µM and the GI50 (HCC-2998 colon) was 13.7 µM. The TGI (HCC-2998 colon) was 27.1 µM, the GI50 (SNB-19 CNS) was 8.43 µM and the TGI (SNB-19 CNS) was 22.3 µM. It also gave a GI50 (RXF 393 renal) of 4.64 µM, a TGI (RXF 393 renal) of 17.9 µM and a GI50 (UO-31 renal) of 8.45 µM. For the same compound, the TGI (UO-31 renal) was 22.2 µM, the GI50 (HCT-15 colon) was 2.96 µM and the TGI (HCT-15 colon) was 19.2 µM. For the same compound, the GI50 (SK-MEL-5 melanoma) was 3.87 µM, the TGI (SK-MEL-5 melanoma) was 15.5 µM and the GI50 (A498 renal) was 10.6 µM. For the same compound, the TGI (A498 renal) was 24 µM, the GI50 (NCI-H460 lung) was 10.6 µM and the TGI (NCI-H460 lung) was 30.1 µM. The GI50 (COLO 205 colon) was 13.8 µM, the TGI (COLO 205 colon) was 31.5 µM and the GI50 (SK-MEL-28 melanoma) was 14.5 µM. For the same compound, the TGI (SK-MEL-28 melanoma) was 79.6 µM, the GI50 (786-0 renal) was 4.36 µM and the TGI (786-0 renal) was 16 µM. The GI50 (NCI/ADR-RES ovarian) was 3.76 µM, the TGI (NCI/ADR-RES ovarian) was 36.4 µM and the GI50 (EKVX NSCLC) was 10.9 µM. For the same compound, the TGI (EKVX NSCLC) was 33.2 µM, the GI50 (HCT-116 colon) was 3.68 µM and the TGI (HCT-116 colon) was 14.9 µM. For the same compound, the GI50 (SF-539 CNS) was 2.89 µM, the TGI (SF-539 CNS) was 10.6 µM and the GI50 (CCRF-CEM leukemia) was 2.38 µM. For the same compound, the TGI (CCRF-CEM leukemia) was 12.2 µM, the GI50 (OVCAR-5 ovarian) was 16.8 µM and the TGI (OVCAR-5 ovarian) was 44.7 µM. It also gave a GI50 (MOLT-4 leukemia) of 3.19 µM, a TGI (MOLT-4 leukemia) of 17.7 µM and a GI50 (UACC-62 melanoma) of 8.97 µM. The TGI (UACC-62 melanoma) was 27.4 µM, the GI50 (PC-3 prostate) was 8.1 µM and the TGI (PC-3 prostate) was 27.6 µM. For the same compound, the GI50 (KM12 colon) was 8.54 µM, the TGI (KM12 colon) was 23.7 µM and the GI50 (BT-549 breast) was 3.81 µM. For the same compound, the TGI (BT-549 breast) was 16.6 µM, the GI50 (SF-295 CNS) was 10.1 µM and the TGI (SF-295 CNS) was 24.5 µM. The GI50 (U251 CNS) was 2.08 µM, the TGI (U251 CNS) was 5.99 µM and the GI50 (MALME-3M melanoma) was 4.58 µM. It also gave a TGI (MALME-3M melanoma) of 18.1 µM, a GI50 (ACHN renal) of 11 µM and a TGI (ACHN renal) of 23.3 µM. The GI50 (HT29 colon) was 4.22 µM, the TGI (HT29 colon) was 16 µM and the GI50 (NCI-H226 lung) was 17.8 µM. The TGI (NCI-H226 lung) was 68.6 µM, the GI50 (HOP-62 NSCLC) was 13.8 µM and the TGI (HOP-62 NSCLC) was 37.1 µM. The GI50 (SF-268 CNS) was 4.67 µM, the TGI (SF-268 CNS) was 22.3 µM and the GI50 (NCI-H522 lung) was 2 µM. It also gave a TGI (NCI-H522 lung) of 4.27 µM.
